Measurements taken from article PMC7203957 (ACS Omega, 2020).
Several values for one entry are separate records, joined by “and”; a condition that tells them apart may be missing. Identical values can stand only once. Each block holds one compound with its values, some of them ahead of it.

Assays:
[1] = molecular target: GyrB (1–220) (Escherichia coli, UniProt P0AES6); test: Isothermal titration calorimetry; type: binding, E. coli; details: for exothermic / thermodynamic signal in ITC: fragment screening, result in words
[2] = Solubility test for ITC measurement; type: physicochemical; details: DMSO (40–200 mM) and assay (ITC) buffer
[3] = system: E. coli ATCC 25922; test: Minimum inhibitory concentration; type: cell-based; details: without efflux pump inhibitor
[4] = system: S. aureus ATCC 29213; test: Minimum inhibitory concentration; type: cell-based
[5] = HepG2 cytotoxicity; type: cell-based; details: human, HepG2 (ATCC HB-8065) cells

ITC ΔH ([1]; Table 2 fragments): −6.14 kcal/mol and -6.14^b kcal/mol
SMILES: CNc1cccc2ccc(=O)[nH]c12 [Compound 2d, 8-(Methylamino)quinolin-2(1H)-one]

exothermic / thermodynamic signal in ITC [1]: no exothermic effects
SMILES: CCNc1cccc2ccc(=O)[nH]c12 [Compound 2q, 8-(ethylamino) quinolin-2(1H)-one]

exothermic / thermodynamic signal in ITC [1]: no exothermic effects
SMILES: Nc1cccc2ccc(=O)[nH]c12 [Compound 2u, 8-aminoquinolin-2(1H)-one]

Solubility for ITC measurement [2]: low solubility
SMILES: CNc1cccc2cc(C(=O)Nc3ccccc3)c(=O)[nH]c12 [Compound 13, 8-(Methylamino)-2-oxo-N-phenyl-1,2-dihydroquinoline-3-carboxamide]

ITC ΔH ([1]; Table 3): -12.9 kcal/mol
SMILES: CNc1cccc2cc(C(=O)Nc3cccc(C(=O)O)c3)c(=O)[nH]c12 [Compound 13a, 3-{[8-(Methylamino)-2-oxo-1,2-dihydroquinoline-3-carbonyl]amino}benzoic Acid]

ITC ΔH ([1]; Table 3): -13.2 kcal/mol
MIC E. coli ATCC 25922 [3]: no antibacterial activity
MIC S. aureus ATCC 29213 [4]: no antibacterial activity
SMILES: CNc1cccc2cc(C(=O)NCCc3cccc(C(=O)O)c3)c(=O)[nH]c12 [Compound 13c, 3-(2-{[8-(Methylamino)-2-oxo-1,2-dihydroquinoline-3-carbonyl]amino}ethyl)benzoic Acid]

ITC ΔH ([1]; Table 3): -13.7 kcal/mol
SMILES: CNc1cccc2cc(C(=O)Nc3ccc(C(=O)O)cc3)c(=O)[nH]c12 [Compound 13e, 4-{[8-(Methylamino)-2-oxo-1,2-dihydroquinoline-3-carbonyl]amino}benzoic Acid]
cytotoxicity at 48 h, 50 µM [5]: 8.4%

MIC E. coli ATCC 25922 [3]: no antibacterial activity
MIC S. aureus ATCC 29213 [4]: no antibacterial activity
SMILES: CNc1cccc2cc(C(=O)NCc3ccc(C(=O)O)cc3)c(=O)[nH]c12 [Compound 13f, 4-({[8-(Methylamino)-2-oxo-1,2-dihydroquinoline-3-carbonyl]amino}methyl)benzoic Acid]
